The target in data set [1] is T1, mu-opioid receptor (MOR) (Rattus norvegicus, UniProt P33535).
T1 construct: Rat cortices were homogenized using 50 mM Tris, pH 7.4, and centrifuged at 16,500 rpm for 10 min; from tissue; host or cells: rat cortex membranes
Put plainly: MOR radioligand competition binding assay ([3H]-DAMGO). The following applies: Mu screening results. An outline of the steps: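 Rat cortical membranes in 50 mM Tris pH 7.4 with 2 mg/mL bovine serum were incubated with 2 nM [3H]-DAMGO and test compound. Bound radioligand was separated by filtration on BSA-soaked GF/B filters and counted by scintillation. Values are mean ± SD of two experiments, each in duplicate.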

The target of data set [2] is T2, kappa-opioid receptor (KOR) (Cavia porcellus, UniProt P41144).
T2 construct: Guinea pig cortices and cerebella were homogenized using 50 mM Tris, pH 7.4; from tissue; host or cells: guinea pig cortex and cerebellum membranes
Briefly: KOR radioligand competition binding assay ([3H]U69,593). The settings on record: Kappa screening results. On the set-up: species or system guinea pig. An outline of the steps: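 Guinea pig cortex and cerebellum homogenates in 50 mM Tris pH 7.4 with 10 mM MgCl2, 2 nM [3H]U69,593, 2 h at 25 °C. Unlabeled U50,488 gave the standard curve and nonspecific binding. Filtration on BSA-soaked GF/B filters, scintillation counting; two replicates, repeated twice, mean ± SD.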

The target of data set [3] is T3, delta-opioid receptor (DOR) (Rattus norvegicus, UniProt P33533).
T3 construct: Rat cortices were homogenized using 50 mM Tris, pH 7.4, 10 mM MgCl2-6H2O, 200 µM PMSF; from tissue; host or cells: rat cortex membranes
Briefly: DOR radioligand competition binding assay ([3H]-DPDPE). The following applies: Delta screening results. In outline:
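Competition binding on rat cortical homogenate in 50 mM Tris pH 7.4, 10 mM MgCl2, 200 µM PMSF with 2 nM [3H]-DPDPE, 2.5 h at 25 °C. Unlabeled DPDPE defined nonspecific binding; filtration onto BSA-soaked GF/B filters, scintillation counting. Mean ± SD of two experiments in duplicate.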
Background: In a radioligand displacement assay an active substance lowers the binding of a labelled ligand.

Data set [4] concerns C57BL/6J mice. Put plainly: 55 °C warm-water tail-withdrawal assay (antinociception). It is filed as in vivo, mouse. The following applies: for ED50 (and 95% Confidence Interval (C.I.)) Values, i.c.v. (nmol): antinociception at peak response, mice, * ED50 estimated where maximum antinociception not achieved; for duration of significant antinociception: maximum doses tested. As for the experimental part:
For intracerebroventricular (i.c.v.) administration, the 1968-series compounds were dissolved in dimethyl sulfoxide (DMSO), followed by the addition of sterile saline (0.9%) so that the final vehicle was 50% DMSO and 50% saline, and the i.c.v. injections were performed as described previously. For per os (p.o.) administration, 1968-4 and 1968-22 were administered in 10% Ethanol/10%Tween-80/80% 0.9% saline. All solutions for animal administration were prepared fresh daily.
Antinociception was calculated according to the following formula: % antinociception = 100 × (test latency − control latency)/(15 − control latency). Tail-withdrawal data points are the means of 8–16 mice, unless otherwise indicated, with SEM shown by error bars.
All dose–response lines were analyzed by regression, and ED50 (effective dose producing 50% antinociception) values and 95% confidence intervals (C.I.) were determined using individual data points from graded dose–response curves with Prism 8.0 software (GraphPad, La Jolla, CA, USA). Percent antinociception was used to determine within group effects and to allow comparison to baseline latency in tail-withdrawal experiments. The statistical significance of differences between ED50 values was determined by evaluation of the ED50 value shift via nonlinear regression modeling with Prism software. Significant differences in behavioral data were analyzed by ANOVA (one-way or two-way with repeated measures (RM), as appropriate). Significant results were further analyzed with Sidak’s, Tukey’s, or Dunnett’s multiple comparison post hoc tests, as appropriate. Data for conditioned place preference experiments were analyzed by two-way RM ANOVA, with analyses examining the main effect of the conditioned place preference phase (e.g., pre- or post-conditioning) and the interaction of drug pretreatment. Significant effects were further analyzed using Sidak’s HSD post hoc testing. All data are presented as mean ± SEM, with significance set at p < 0.05.

Data set [5] concerns C57BL/6J mice. Briefly: Opioid receptor involvement in antinociception (antagonist pretreatment, tail-withdrawal assay). The class given is in vivo, mouse. As for the experimental part: Pretreatment of mice with the opioid antagonist naloxone (10 mg/kg, s.c., −15 min) was used to assess receptor contribution to the observed antinociception induced by maximal tested doses of each 1968-series compound tested.
The opioid receptor involvement in the agonist activity of the heterocyclic peptidomimetics was determined by pretreating mice with a single dose of β-funaltrexamine (β-FNA, 10 mg/kg, i.p.) or nor-BNI (10 mg/kg, i.p.) 24 h in advance of administration of a dose of 1968-series compound.

Data set [6] deals with κ opioid receptor. Details: method as in PMID 25996309. The settings on record: cited from earlier work.
Data set [7] deals with δ opioid receptor. On the set-up: method as in PMID 25996309. The following applies: cited from earlier work.
Data set [8] has as its system C57BL/6J mice. Briefly: Respiration rate in CLAMS/Oxymax system. It is filed as in vivo, mouse. The following applies: 100 nmol, i.c.v. The method, then: (§1) Respiration rates (in breaths per minute) and animal locomotive activity (as ambulations) were assessed using the Oxymax/CLAMS system (Columbus Instruments, Columbus, OH), as described previously. Mice were habituated to their individual sealed housing chambers for 60 min before testing. Mice were administered 1968-22 (0.3–100 nmol, i.c.v.), morphine (100 nmol, i.c.v.), or vehicle, as indicated, and five min later confined to the CLAMS testing chambers. Pressure monitoring within the sealed chambers measured frequency of respiration. Infrared beams located in the floor measured locomotion as number of beam breaks. Respiration and locomotive data were averaged over 20 min periods for 120 min post-injection of the test compound. Data are presented as % vehicle response ± SEM, ambulation or breaths per minute.

Data set [9] has as its system C57BL/6J mice. Briefly: Ambulation (locomotor activity) in CLAMS/Oxymax system. The class given is in vivo, mouse. The following applies: 100 nmol, i.c.v. As for the experimental part: as §1
Data set [10] relates to C57BL/6J mice. Briefly: Conditioned place preference / aversion. The class given is in vivo, mouse. The settings on record: 10 mg/kg, i.p.; two days of place conditioning.
The test system of data set [11] is C57BL/6J mice. Briefly: Acute antinociceptive tolerance determination.
[12] abbreviates: experiment 1, unit inferred, read-out: Ki (Exp 1).
Setting [13] is: experiment 2, unit inferred, read-out: Ki (Exp 2).
[14] abbreviates: mean of Exp 1 and Exp 2, unit inferred, read-out: MEAN (Ki).
Where [15] appears, read: mean of two experiments, read-out: Ki.
The mark [16] stands for this setting: first Ki column, unit not printed (apparently M), read-out: Ki (first column).
Where [17] appears, read: mean of both Ki, unit inferred, read-out: MEAN (Ki).
The mark [18] stands for this setting: second Ki column, unit not printed (apparently M), read-out: Ki (second column).

Read-outs that look alike come from different tables or passages of the source.

As for `Cc1cc(O)cc(C)c1C[C@H]1CN([C@@H](Cc2ccc(O)cc2)CN2C(=N)NC[C@@H]2Cc2ccccc2)C(=N)N1` [1968-4], the Ki came to 16.9 nM in [1] (setting [12]); 9.51 nM in [1] (setting [13]); 13.2 nM in data set [1] (setting [14]); 13 nM in [1] (setting [15]); 311 nM in data set [2] (setting [12]); 178 nM in data set [2] (setting [13]). In addition, the Ki in data set [2] (setting [14]) was 245 nM; in data set [2] (setting [15]), 245 nM; in data set [3] (setting [16]) it was 729 nM; in data set [3] (setting [17]), 874 nM; in data set [3] (setting [15]), 874 nM; in data set [3] (setting [18]), 1020 nM. Also, the “antinociception at the highest dose tested” value in data set [4] (30 nmol, i.c.v.) is on record as “approximately 60%”. For the same molecule, the “antinociception after oral administration (in words)” value in [4] (10 mg/kg, p.o.) is “significant antinociception”. The “duration of significant antinociception after oral administration” value in [4] (10 mg/kg, p.o.) is “brief”. The “time of peak antinociception after i.c.v. administration” value in [4] (i.c.v.) worked out at 30 min. Besides, the “ED50 (and 95% Confidence Interval (C.I.)) Values, i.c.v. (nmol)” value in data set [4] (i.c.v.) is recorded as 20.8 (5.52–127.1) nmol. In addition, the “duration of significant antinociception” value in data set [4] (i.c.v.) turned out to be 60 min.
`Cc1cc(O)cc(C)c1C[C@@H](CN1C(=N)NC[C@@H]1C)N1C[C@H](Cc2ccc(O)cc2)NC1=N` [1968-16]: the Ki in [1] (setting [12]) amounted to 7.52 nM; in data set [1] (setting [13]) it was 9.24 nM; in data set [1] (setting [14]), 8.38 nM; in data set [1] (setting [15]), 8 nM; in data set [2] (setting [12]) it was 246 nM; in data set [2] (setting [13]) it was 293 nM. The Ki in data set [2] (setting [14]) is 270 nM; in data set [2] (setting [15]), 270 nM; in data set [3] (setting [16]), 616 nM; in data set [3] (setting [17]) it was 697 nM; in data set [3] (setting [15]), 697 nM; in data set [3] (setting [18]), 777 nM. Further, in data set [4] (i.c.v.), the “ED50 (and 95% Confidence Interval (C.I.)) Values, i.c.v. (nmol)” value is 2.00 (0.5–7.45) nmol. Also, the “duration of significant antinociception” value in data set [4] (i.c.v.) came to 70 min. Further, the “effect of naloxone pretreatment on antinociception” value in data set [5] (naloxone 10 mg/kg, s.c., −15 min, maximal tested i.c.v. dose of compound) is listed as “most susceptible to antagonism by naloxone”. The “effect of naltrindole (DOR antagonist) pretreatment on antinociception” value in [5] (naltrindole 20 mg/kg, i.p., −20 min, 1968-16 30 nmol or 1968-22 0.3 nmol, i.c.v.) is “significantly antagonized”. For the same molecule, the “effect of nor-BNI (KOR antagonist) pretreatment on antinociception” value in data set [5] (nor-BNI 10 mg/kg, i.p., −24 h, 1968-16 30 nmol or 1968-22 0.3 nmol, i.c.v.) is “significantly antagonized”. The “effect of β-FNA (MOR antagonist) pretreatment on antinociception” value in data set [5] (β-FNA 10 mg/kg, i.p., −24 h, 1968-16 30 nmol or 1968-22 0.3 nmol, i.c.v.) was “significantly antagonized”.
As to `CC(C)C[C@H]1CN2C(=CC3=NC[C@H](C(C)C)N3C[C@@H]2Cc2ccc(O)cc2)N1CCc1ccccc1` [Diimidazodiazepine 14], the results for the Ki in data set [6] and in data set [7] were 23 ± 12 nM and 32 ± 6 nM, respectively.
Take `CN1CC[C@]23c4c5ccc(O)c4O[C@H]2[C@@H](O)C=C[C@H]3[C@H]1C5` [Morphine, morphine, reference compound]: in data set [4] (i.c.v.), the “time of peak antinociception after i.c.v. administration” value is listed as 30 min and the “ED50 (and 95% Confidence Interval (C.I.)) Values, i.c.v. (nmol)” value is reported as 3.09 (2.76–3.50) nmol. Also, the “effect on respiration rate vs vehicle” value in [8] is “significant, time-dependent respiratory depression”. Moreover, the “effect on ambulation vs vehicle” value in [9] is reported as “elevated ambulations”. In addition, the place conditioning result in data set [10] is listed as “significant place preference”. Moreover, the “fold rightward shift in dose-response curve of the second dose (acute tolerance)” value in data set [11] (ED50 dose i.c.v. at 0 h, graded doses at 8 h) was found to be 7.71 fold. For the same molecule, the “ED50 (95% C.I.) of second dose at 8 h” value in [11] (i.c.v., after ED50 pretreatment at 0 h) is on record as 23.8 (17.0–31.6) nmol.

Source of the values: PMC9455983 (International Journal of Molecular Sciences, 2022).
